Experimental data from patent EP0094564A2, “Azolyl-methyl oxiranes, their preparation and use as medicaments and plant protecting agents” (BASF Aktiengesellschaft, priority 1982, dated 1983).
Values after ≈ are worked out from the molar mass of the structure shown.

Assays:
Cand.alb. H = assay: Candida albicans pseudomycelium/mycelium phase test, MIC; assay type: cell-based; details: in vitro, column H, read-out: Minimale Hemmkonzentration (MHK) Cand.alb. H
Description: (§1) Die Wirkung gegen Dermatophyten, Bakterien und Protozonen kann nach Methoden, wie sie beispielsweise in P. Klein, Bakteriologische Grundlagen der chemotherapeutischen Laboratoriumspraxis, Springer-Verlag Berlin, 1957, beschrieben wird, aufgezeigt werden. Die überraschende Wirkung gegenüber Hefen wurde im Pseudomyzel- und Myzelphasentest mit Candida albicans nachgewiesen (vgl. DE-OS 30 10 093). Es wurde geprüft, welche minimalen Hemmkonzentrationen (MHK-Werte) im Agardilutionstest erreicht werden. In der Tabelle 1 sind die Ergebnisse zusammengefaßt.

[1] = system: Weizenmehltau (Erysiphe graminis var. tritici); assay: Versuch 1: activity against wheat powdery mildew on wheat seedlings; assay type: in vivo; details: 0,025; 0,006; 0,0015 %ige Spritzbrühen; sprayed 24 h before inoculation; assessed after 7 days; value given as 'beispielsweise'
Method: Blätter von in Töpfen gewachsenen Weizenkeimlingen der Sorte "Jubilar" wurden mit wäßriger Spritzbrühe, die 80 % (Gew.%) Wirkstoff und 20 % Emulgiermittel in der Trockensubstanz enthielt, besprüht und 24 Stunden nach dem Antrocknen des Spritzbelages mit Oidien (Sporen) des Weizenmehltaus (Erysiphe graminis var. tritici) bestäubt. Die Versuchspflanzen wurden anschließend im Gewächshaus bei Temperaturen zwischen 20 und 22 °C und 75 bis 80 % relativer Luftfeuchtigkeit aufgestellt. Nach 7 Tagen wurde das Ausmaß der Mehltauentwicklung ermittelt.

Trichom. vag. = assay: Minimal inhibitory concentration in vitro (protozoa); assay type: cell-based; details: read-out: Minimale Hemmkonzentration (MHK) Trichom. vag.
Description: as §1

Staph. aur. SG 511 = assay: Agar dilution test, minimal inhibitory concentration in vitro; assay type: cell-based; details: read-out: Minimale Hemmkonzentration (MHK) Staph. aur. SG 511
Description: as §1

Epid. flocc. 157 = assay: as above; assay type: cell-based; details: read-out: Minimale Hemmkonzentration (MHK) Epid. flocc. 157
Description: as §1

Trichoph. ment. 21 = assay: as above; assay type: cell-based; details: read-out: Minimale Hemmkonzentration (MHK) Trichoph. ment. 21
Description: as §1

Strept. faec. 8043 = assay: as above; assay type: cell-based; details: read-out: Minimale Hemmkonzentration (MHK) Strept. faec. 8043
Description: as §1

E.coli muta-flor = assay: as above; assay type: cell-based; details: Escherichia coli, read-out: Minimale Hemmkonzentration (MHK) E.coli muta-flor
Description: as §1

Mucor pus. 6 = assay: as above; assay type: cell-based; details: read-out: Minimale Hemmkonzentration (MHK) Mucor pus. 6
Description: as §1

Abs. corym. 1 = assay: as above; assay type: cell-based; details: read-out: Minimale Hemmkonzentration (MHK) Abs. corym. 1
Description: as §1

Aps.fum. 2 = assay: as above; assay type: cell-based; details: read-out: Minimale Hemmkonzentration (MHK) Aps.fum. 2
Description: as §1

Botrytis cinerea = assay: Versuch 4: activity against Botrytis cinerea on paprika seedlings; assay type: in vivo; details: 0,05 %ige Spritzbrühe; sprayed before inoculation; assessed after 5 days; value given as 'beispielsweise'
Description: Paprikasämlinge der Sorte "Neusiedler Ideal Elite" wurden, nachdem sich 4 bis 5 Blätter gut entwickelt hatten, mit wäßrigen Suspensionen, die 80 % Wirkstoff und 20 % Emulgiermittel in der Trockensubstanz enthielten, tropfnaß gespritzt. Nach dem Antrocknen des Spritzbelages wurden die Pflanzen mit einer Konidienaufschwemmung des Pilzes Botrytis cenerea besprüht und bei 22 bis 24 C in eine Kammer mit hoher Luftfeuchtigkeit gestellt. Nach 5 Tagen hatte sich die Krankheit auf den unbehandelten Kontrollpflanzen so stark entwickelt, daß die entstandenen Blattnekrosen den überwiegenden Teil der Blätter bedeckten.

Cand.alb. M = assay: Candida albicans pseudomycelium/mycelium phase test, MIC (column M); assay type: cell-based; details: in vitro, read-out: Minimale Hemmkonzentration (MHK) Cand.alb. M
Description: as §1

[2] = system: Gurkenmehltau (Erysiphe cichoracearum); assay: Versuch 3: activity against cucumber powdery mildew on cucumber seedlings; assay type: in vivo; details: 0,025 %ige Spritzbrühe; sprayed about 20 h after inoculation; assessed after 21 days; value given as 'beispielsweise'
Description: Blätter von in Töpfen gewachsenen Gurkenkeimlingen der Sorte "Chinesische Schlange" wurden im Zweiblattstadium mit einer Sporensuspension des Gurkenmehltaus (Erysiphe cichoracearum) besprüht. Nach etwa 20 Stunden wurden die Versuchspflanzen mit wäßriger Spritzbrühe, die 80 % Wirkstoff und 20 % Emulgiermittel in der Trockensubstanz enthielt, bis zur Tropfnässe besprüht. Nach dem Antrocknen des J Spritzbelages wurden sie anschließend im Gewächshaus bei Temperaturen zwischen 20 und 22^00 und 70 bis 80 % relativer Luftfeuchtigkeit aufgestellt. Zur Beurteilung der Wirksamkeit der neuen Stoffe wurde das Ausmaß der Pilzentwicklung nach 21 Tagen beurteilt.

[3] = system: Weizenbraunrost (Puccinia recondita); assay: Versuch 2: activity against wheat brown rust on wheat seedlings; assay type: in vivo; details: 0,025; 0,006; 0,0015 %ige Spritzbrühen; sprayed 24 h after inoculation; assessed after 8 days; value given as 'beispielsweise'
Method: Blätter von in Töpfen gewachsenen Weizensämlingen der Sorte "Jubilar" wurden mit Sporen des Braunrostes (Puccinia recondita) bestäubt. Danach wurden die Töpfe für 24 Stunden bei 20 bis 22°C in eine Kammer mit hoher Luftfeuchtigkeit (90 bis 95 %) gestellt. Während dieser Zeit keimten die Sporen aus und die Keimschläuche drangen in das Blattgewebe ein. Die infizierten Pflanzen wurden anschließend mit wäßrigen Spritzbrühen, die 80 % Wirkstoff und 20 % Emulgiermittel in der Trockensubstanz enthielten, tropfnaß gespritzt. Nach dem Antrocknen des Spritzbelages wurden die Versuchspflanzen im Gewächshaus bei Temperaturen zwischen 20 und 22°C und 65 bis 70 % relativer Luftfeuchte aufgestellt. Nach 8 Tagen wurde das Ausmaß der Rostpilzentwicklung auf den Blättern ermittelt.

Entamoeb hist. = assay: Minimal inhibitory concentration in vitro (protozoa); assay type: cell-based; details: read-out: Minimale Hemmkonzentration (MHK) Entamoeb hist.
Description: as §1

Microsp. ferrug. 5 = assay: Agar dilution test, minimal inhibitory concentration in vitro; assay type: cell-based; details: read-out: Minimale Hemmkonzentration (MHK) Microsp. ferrug. 5
Description: as §1

Trametes versicolor = assay: Versuch 6: fungal growth on malt extract agar containing active ingredient; assay type: cell-based; set-up: key: 0 = kein Pilzwachstum (Pilzmyzel abgetötet); 1 = geringes Pilzwachstum (bis 1/3 der Agaroberfläche bewachsen); 3 = mittleres Pilzwachstum (bis 2/3 der Agaroberfläche bewachsen); 5 = ungehemmtes Pilzwachstum (gesamte Agaroberfläche bewachsen); details: 40 ppm in 5 % malt extract agar; 5 days at 25 °C; growth score
Description: (§2) Die Wirkstoffe werden in Aceton gelöst, in Mengen von 40 ppm einem verflüssigten 5 %igen Malzextraktagar zugesetzt. Der Agar wird in Petrischalen ausgegossen und nach dem Erstarren werden die fungizidhaltigen Nähragarplatten zentral mit Myzel der holzzerstörenden Pilze Coniophora puteana und Trametes versicolor, des Moderfäule und Stockflecken verursachenden Pilzes Chaetomium globosum sowie mit Sporen des grünen Holzschimmels Trichoderma viride beimpft.
(§3) Nach fünftägiger Bebrütung der Schalen bei 25 °C wird die Entwicklung der Pilzkolonien auf dem Nährboden im Vergleich mit der Kontrolle (ohne Wirkstoff-Zusatz) beurteilt: • 0 = kein Pilzwachstum (Pilzmyzel abgetötet) • 1 = geringes Pilzwachstum (bis 1/3 der Agaroberfläche bewachsen) • 3 = mittleres Pilzwachstum (bis 2/3 der Agaroberfläche bewachsen) • 5 = ungehemmtes Pilzwachstum (gesamte Agaroberfläche bewachsen)

Chaetomium globosum = assay: as above; assay type: cell-based; set-up: key: 0 = kein Pilzwachstum (Pilzmyzel abgetötet); 1 = geringes Pilzwachstum (bis 1/3 der Agaroberfläche bewachsen); 3 = mittleres Pilzwachstum (bis 2/3 der Agaroberfläche bewachsen); 5 = ungehemmtes Pilzwachstum (gesamte Agaroberfläche bewachsen); details: 40 ppm in 5 % malt extract agar; 5 days at 25 °C; growth score
Description: as §2, §3

Trichoderma viride = assay: as above; assay type: cell-based; set-up: key: 0 = kein Pilzwachstum (Pilzmyzel abgetötet); 1 = geringes Pilzwachstum (bis 1/3 der Agaroberfläche bewachsen); 3 = mittleres Pilzwachstum (bis 2/3 der Agaroberfläche bewachsen); 5 = ungehemmtes Pilzwachstum (gesamte Agaroberfläche bewachsen); details: 40 ppm in 5 % malt extract agar; 5 days at 25 °C; growth score
Description: as §2, §3

Coniophora puteana = assay: as above; assay type: cell-based; set-up: key: 0 = kein Pilzwachstum (Pilzmyzel abgetötet); 1 = geringes Pilzwachstum (bis 1/3 der Agaroberfläche bewachsen); 3 = mittleres Pilzwachstum (bis 2/3 der Agaroberfläche bewachsen); 5 = ungehemmtes Pilzwachstum (gesamte Agaroberfläche bewachsen); details: 40 ppm in 5 % malt extract agar; 5 days at 25 °C; growth score
Description: as §2, §3

| Compound | MIC (Cand.alb. H) [µg/mL] | MIC (Trichom. vag.) [µg/mL] | MIC (Staph. aur. SG 511) [µg/mL] | MIC (Epid. flocc. 157) [µg/mL] | MIC (Trichoph. ment. 21) [µg/mL] | MIC (Strept. faec. 8043) [µg/mL] | MIC (E.coli muta-flor) [µg/mL] | MIC (Mucor pus. 6) [µg/mL] | MIC (Abs. corym. 1) [µg/mL] | MIC (Aps.fum. 2) [µg/mL] | MIC (Cand.alb. M) [µg/mL] | MIC (Entamoeb hist.) [µg/mL] | MIC (Microsp. ferrug. 5) [µg/mL] | fungizide Wirkung gegen Weizenmehltau [1] [%] | fungizide Wirkung gegen Botrytis cinerea an Paprika (Botrytis cinerea) [%] | fungizide Wirkung gegen Gurkenmehltau [2] [%] | fungizide Wirkung gegen Weizenbraunrost [3] [%] | further results |
| --- | --- | --- | --- | --- | --- | --- | --- | --- | --- | --- | --- | --- | --- | --- | --- | --- | --- | --- |
| Clc1ccc(C2(Cn3cncn3)OC2c2ccc(Cl)cc2Cl)cc1 (single isomer, unassigned) [Beispiel 3, 2-(1,2,4-Triazol-1-yl--methyl)-2-(4-chlorphenyl)-3-(2,4-dichlorphenyl)-oxiran] | > 128 | > 16 | 32 (≈ 84.1 µM) | 4 (≈ 10.5 µM) | 8 (≈ 21 µM) | > 128 | > 128 | 1 (≈ 2.63 µM) | 2 (≈ 5.25 µM) | > 128 | – | > 1 | 2 (≈ 5.25 µM) | – | 97 | – | 100 | – |
| CC(C)(C)C1(Cn2ccnc2)OC1c1ccc(Cl)cc1Cl (single isomer, unassigned) [Beispiel 18] | > 16 | > 16 | 4 (≈ 12.3 µM) | 0.25 (≈ 0.769 µM) | 0.5 (≈ 1.54 µM) | 2 (≈ 6.15 µM) | > 128 | 16 (≈ 49.2 µM) | 32 (≈ 98.4 µM) | 0.5 (≈ 1.54 µM) | – | > 1 | 0.25 (≈ 0.769 µM) | – | – | 100 | – | – |
| COc1cccc(C2OC2(Cn2ccnc2)c2ccc(Cl)cc2)c1 (single isomer, unassigned) [Beispiel 29] | 128 (≈ 376 µM) | > 16 | 16 (≈ 46.9 µM) | 2 (≈ 5.87 µM) | 2 (≈ 5.87 µM) | 4 (≈ 11.7 µM) | > 128 | 4 (≈ 11.7 µM) | 8 (≈ 23.5 µM) | 16 (≈ 46.9 µM) | 0.25 (≈ 0.734 µM) | > 1 | 2 (≈ 5.87 µM) | – | – | – | – | – |
| Clc1ccc(C2OC2(Cn2cncn2)c2ccc(Br)cc2)cc1 (single isomer, unassigned) [Beispiel 44] | – | – | – | – | – | – | – | – | – | – | – | – | – | 100 | 97 | 100 | 100 | Wirksamkeit gegen Trametes versicolor (Trametes versicolor): 0; Wirksamkeit gegen Chaetomium globosum (Chaetomium globosum): 1; Wirksamkeit gegen Trichoderma viride (Trichoderma viride): 0; Wirksamkeit gegen Coniophora puteana (Coniophora puteana): 0 |
| Clc1ccc(C2(Cn3cncn3)OC2c2ccc(Br)cc2)cc1 (single isomer, unassigned) [Beispiel 46] | – | – | – | – | – | – | – | – | – | – | – | – | – | 100 | 97 | – | 100 | Wirksamkeit gegen Trametes versicolor (Trametes versicolor): 0; Wirksamkeit gegen Chaetomium globosum (Chaetomium globosum): 0; Wirksamkeit gegen Trichoderma viride (Trichoderma viride): 0; Wirksamkeit gegen Coniophora puteana (Coniophora puteana): 0 |

Further compounds by falling MIC (Cand.alb. H), results first:

| MIC (Cand.alb. H) [µg/mL] | MIC (Trichom. vag.) [µg/mL] | MIC (Staph. aur. SG 511) [µg/mL] | MIC (Epid. flocc. 157) [µg/mL] | MIC (Trichoph. ment. 21) [µg/mL] | MIC (Strept. faec. 8043) [µg/mL] | MIC (E.coli muta-flor) [µg/mL] | MIC (Mucor pus. 6) [µg/mL] | MIC (Abs. corym. 1) [µg/mL] | MIC (Aps.fum. 2) [µg/mL] | MIC (Cand.alb. M) [µg/mL] | MIC (Entamoeb hist.) [µg/mL] | MIC (Microsp. ferrug. 5) [µg/mL] | Compound | fungizide Wirkung gegen Weizenmehltau [1] [%] | fungizide Wirkung gegen Botrytis cinerea an Paprika (Botrytis cinerea) [%] | fungizide Wirkung gegen Gurkenmehltau [2] [%] | fungizide Wirkung gegen Weizenbraunrost [3] [%] | further results |
| --- | --- | --- | --- | --- | --- | --- | --- | --- | --- | --- | --- | --- | --- | --- | --- | --- | --- | --- |
| 64 (≈ 164 µM) | > 16 | 8 (≈ 20.5 µM) | 1 (≈ 2.57 µM) | 1 (≈ 2.57 µM) | 4 (≈ 10.3 µM) | > 128 | 2 (≈ 5.13 µM) | 2 (≈ 5.13 µM) | 16 (≈ 41.1 µM) | 0.0156 (≈ 0.04 µM) | > 1 | 0.25 (≈ 0.642 µM) | Clc1ccc(C2(Cn3ccnc3)OC2c2ccc(Br)cc2)cc1 (single isomer, unassigned) [Beispiel 47] | – | – | – | – | – |
| 16 (≈ 42.1 µM) | > 16 | 16 (≈ 42.1 µM) | 0.5 (≈ 1.32 µM) | 0.5 (≈ 1.32 µM) | 128 (≈ 337 µM) | > 128 | 1 (≈ 2.63 µM) | 0.5 (≈ 1.32 µM) | 1 (≈ 2.63 µM) | < 0.0039 | – | – | Clc1ccc(C2(Cn3ccnc3)OC2c2ccc(Cl)cc2Cl)cc1 (single isomer, unassigned) [Beispiel 1, 2-(1H-Imidazol-1-yl-methyl)-2-(4-chlorphenyl)-3-(2,4-dichlorphenyl)-oxiran] | 100 | 97 | 100 | – | – |
| 2 (≈ 4.98 µM) | > 16 | 8 (≈ 19.9 µM) | 16 (≈ 39.9 µM) | 16 (≈ 39.9 µM) | 2 (≈ 4.98 µM) | > 128 | 8 (≈ 19.9 µM) | 16 (≈ 39.9 µM) | > 128 | 1 (≈ 2.49 µM) | > 1 | 8 (≈ 19.9 µM) | CC(C)(C)c1ccc(C2OC2(Cn2ccnc2)c2ccc(Cl)cc2Cl)cc1 (single isomer, unassigned) [Beispiel 21] | – | – | – | – | – |
